# Source: article PMC5608556, “Photo-affinity labelling and biochemical analyses identify the target of trypanocidal simplified natural product analogues” (PLoS Neglected Tropical Diseases, 2017)
# Columns and labels:
# [1] = molecular target: T1, FoF1-ATP synthase F1 β-subunit (GFP-PTP tagged) (Trypanosoma brucei brucei, UniProt Q9GPE9); test: In vivo photo-affinity labelling of GFP-PTP-tagged F1 β-subunit, Cy5.5 detection; assay type: binding; conditions: 50 μM, in vivo pulse-chase, UV 365 nm
# T1 construct: The endogenous expression produces tagged protein at physiological levels, allowing it to be trafficked and form complexes in the same way as untagged endogenously expressed protein; expressed in transfected cells; host or cells: procyclic-form T. brucei strain 29-13, stably transfected with BsmI-linearised pC-F1β-GFP-PTP (recombination into the endogenous gene)
# Protocol: Fig 7 B-THP-Ts bind to C-terminal GFP-PTP tagged F1 α- and β- subunits. (A) Stably transfected PF T. brucei cells endogenously-expressing F1 α-GFP-PTP or F1 β-GFP-PTP were loaded with MitoTracker Red CMXros (red) and DAPI (blue) and imaged microscopically to determine localisation of GFP-PTP-tagged protein. […] (B) Following in vivo photo-affinity labelling with 50 μM compound 3 or compound 1 (negative control), GFP-PTP-tagged F1 α- and β-subunits were affinity purified and Cy5.5 clicked on. Proteins were separated by SDS-PAGE and a western blot was performed with mouse anti-GFP / anti-mouse-DyLight 800. […]
# Pulse-chase in vivo photo-affinity labelling with bi-functional compound 3 (and lead compound 1 as negative control) was performed on cells from both cell lines expressing GFP-PTP-tagged F1 α- or β-subunits. Tagged subunits were immobilised on IgG-sepharose beads, purified, and Cy5.5 fluorescent reporter clicked on, and proteins were detected by western blotting (Fig 7B). […] In trypanosomatids (but not in other organisms) the native α-subunit is expressed as a 63 KDa protein which is then cleaved by an unknown protease to 20 KDa N-terminal and 43 KDa C-terminal domains, both of which remain associated with the FoF1-ATP synthase complex. […]
# Vero = test: Toxicity (EC50) in Vero cells; assay type: cell-based; conditions: Chlorocebus sabaeus, footnote b, read-out: EC50 values Mammal Vero
# Source text: Fig 1 Labelling and detection of B-THP-T target(s). (A) Structures of chamuvarinin and simplified analogues thereof as probes used in this study and their respective toxicity in selected cell lines. Bi-functional compound 3 contains a diazirine (blue) to cross-link the compound to its target and an alkyne handle (red) to which an azide-containing reporter probe can be added. Mono-functional compound 2 contains the diazirine to cross-link to its target but lacks the alkyne handle and cannot be appended with an azide reporter probe. Lead B-THP-T, compound 1, lacks both diazirine and alkyne. The additional functional groups on compounds 2 and 3 are minor alterations, which have little effect on inhibitor potency. (B) Overview of the in vivo pulse-chase photo-affinity labelling procedure. B-THP-T were incubated with live PF T. brucei cells and trafficked to their targets. Following UV-irradiation, only compounds containing a diazirine (i.e. compounds 2 and 3) could cross-link with target proteins. The subsequent “click reaction” appended the conjugated B-THP-T with a reporter probe as long as an alkyne handle was present (i.e. on compound 3). Refer to the experimental section for details. (C) Detection of Cy5.5-tagged proteins following photo-affinity labelling. Proteins were separated by SDS-PAGE and conjugated Cy5.5 was detected at 700 nm. […]
# T1 sequence (Q9GPE9 22-519): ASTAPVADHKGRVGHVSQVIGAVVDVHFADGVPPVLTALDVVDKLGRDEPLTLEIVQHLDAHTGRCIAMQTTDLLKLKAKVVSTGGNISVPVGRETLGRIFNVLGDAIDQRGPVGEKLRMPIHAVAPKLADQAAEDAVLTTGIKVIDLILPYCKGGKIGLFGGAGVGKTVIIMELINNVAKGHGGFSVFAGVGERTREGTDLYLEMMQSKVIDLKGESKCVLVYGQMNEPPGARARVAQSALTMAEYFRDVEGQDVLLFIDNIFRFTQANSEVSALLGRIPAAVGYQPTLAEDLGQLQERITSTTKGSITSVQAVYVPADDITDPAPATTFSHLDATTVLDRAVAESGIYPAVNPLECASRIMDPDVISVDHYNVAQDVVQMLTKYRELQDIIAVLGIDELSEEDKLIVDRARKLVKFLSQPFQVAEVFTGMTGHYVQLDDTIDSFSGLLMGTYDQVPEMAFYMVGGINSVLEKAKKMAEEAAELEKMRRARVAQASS
smiles,measurement,setting,value
C#CCNC(=O)CCC[C@H]1CC2(C[C@@H](Cn3cc([C@@H]4CCC[C@H](CCCCOCc5ccccc5)O4)nn3)O1)N=N2 [Compound 3],UV-conjugation (Cy5.5 labelling at 700 nm) to F1 β-GFP-PTP,[1],can UV-conjugate
same,EC50,Vero,21.3 ± 2 µM
